Source: publication PMC12040169 (PLOS Biology, 2025)
Peptide text beside a SMILES is read from it. * marks the point of attachment. Bz = O=C(c1ccccc1)*

experiment: in vitro; conditions: human, hela cells, % viability

| SMILES | viability at 28.5 h, 10 µM [%] |
| --- | --- |
| O=C(O)c1ccccc1Nc1c2ccccc2nc2ccccc12 [CBK263921] | 96 |
| Cc1ccc2oc(-c3cc(NC(=S)NC(=O)c4ccc([N+](=O)[O-])cc4)ccc3O)nc2c1 [CBK263923] | 94.3 |
| Cc1ccc(OCC(=O)NC(=S)Nc2cccc(-c3nc4ncccc4o3)c2C)cc1 [CBK263925] | 109 |
| CCOC(=O)C(CO)NC(=O)c1cncc(Br)c1 (stereo not shown) [CBK263926] | 83.8 |
| CC(Oc1ccc(/C=N/n2cnnc2)cc1)C(=O)O (stereo not shown) [CBK263927] | 82 |
| Cc1ccc(OCC(=O)NC(=S)Nc2ccc(Cl)c(-c3nc4ncccc4o3)c2)cc1 [CBK263930] | 103 |
| Cc1ccc(/C=C2\SC(=S)N(CC(=O)Nc3cccc(C(=O)O)c3)C2=O)cc1 [CBK263935] | 86.2 |
| O=C(NCCNc1c(Cl)cccc1[N+](=O)[O-])c1cccc(Br)c1 [CBK263940] | 91.4 |
| O=C(CSc1nc2ccccc2[nH]1)n1c2c(c3ccccc31)CCCC2 [CBK263945] | 92.8 |
| Cc1c(/C=C2\SC(=S)NC2=O)c2ccccc2n1Cc1ccccc1Cl [CBK263946] | 101 |
| COc1cc(/C=C2\C(=O)NN(c3ccccc3)C2=O)ccc1OCCOc1cc(C)ccc1C [CBK263947] | 80.5 |
| CC(Oc1ccc(Cl)cc1Cl)C(=O)NC1CC(C)(C)NC(C)(C)C1 (stereo not shown) [CBK263951C] | 90.3 |
| NCCNc1ccc(C(=O)Nc2cccc(Cl)c2)cc1[N+](=O)[O-] [CBK263953] | 85.3 |
| N=C1NC(=O)/C(=C/c2cccc(OCCOc3ccc(C4CCCCC4)cc3)c2)S1 [CBK263956] | 87.6 |
| O=C1CC(NCc2ccccc2)C(=O)N1c1ccc(N2C(=O)CC(NCc3ccccc3)C2=O)cc1 (stereo not shown) [CBK263963] | 88.6 |
| COc1ccc(N(CC(=O)Nc2cccc3cccnc23)S(=O)(=O)c2ccc(C)cc2)cc1 [CBK263965] | 74 |
| CC(C)Oc1ccc(CCNC(=N)NC(=N)N)cc1Cl [CBK263966] | 91.5 |
| Cc1ccc(S(=O)(=O)N(CC(=O)Nc2cccnc2)c2ccc(F)cc2)cc1 [CBK263968] | 85.6 |
| COc1ccc(Cl)cc1NC(=O)CCSc1ccccc1 [CBK263969] | 85 |
| S=C(NCCC(c1ccccc1)c1ccccc1)Nc1ccc(Cl)c(Cl)c1 [CBK263972] | 85.1 |
| O=S(=O)(NCc1ccccn1)c1ccc(Cl)c(Cl)c1Cl [CBK263978] | 95.6 |
| O=C(Nc1ccc(-c2nc3ccccc3s2)c(O)c1)c1ccc(-c2ccccc2)cc1 [CBK263979] | 92.9 |
| Cc1ccc(N(CC(=O)Nc2ccc(S(=O)(=O)N3CCCCC3)cc2)S(C)(=O)=O)c(C)c1 [CBK263981] | 99.8 |
| O=C(COc1ccccc1[N+](=O)[O-])Nc1cc(C(=O)O)cc(C(=O)O)c1 [CBK263983] | 93.9 |
| CCOC(=O)c1ccccc1NC(=O)CC1Nc2ccccc2NC1=O (stereo not shown) [CBK263990] | 91.3 |

| SMILES | viability at 28.5 h, 10 µM [%] |
| --- | --- |
| Cc1ccc(S(=O)(=O)NCCSc2ccccc2)cc1[N+](=O)[O-] [CBK263991] | 93.6 |
| O=C(Nc1ccc(S(=O)(=O)N2CCCCC2)cc1)c1ccc(CN2CCc3ccccc3C2)cc1 [CBK263993] | 90.7 |
| Cc1ccc(S(=O)(=O)N(CC(=O)NC2CC3CCC2C3)c2cc(Cl)cc(Cl)c2)cc1 (stereo not shown) [CBK263995] | 85.3 |
| OC(CN1CCOCC1)Cn1c(-c2ccccc2)c(-c2ccccc2)c2ccc3ccccc3c21 (stereo not shown) [CBK263996G] | 94.7 |
| Cc1ccc(CNC(=O)CN(c2cccc(C(F)(F)F)c2)S(=O)(=O)c2ccc(C)cc2)cc1 [CBK263997] | 89.3 |
| COc1ccccc1/C=C(/NC(=O)c1ccc(Cl)cc1Cl)C(=O)O [CBK263998] | 98.4 |
| O=C(CN(c1ccccc1F)S(=O)(=O)c1ccccc1)Nc1ccccc1C(=O)O [CBK263999] | 97.1 |
| COc1ccc(Cl)cc1NC(=O)C1CN(S(=O)(=O)c2ccccc2)CCN1S(=O)(=O)c1ccccc1 (stereo not shown) [CBK264000] | 93.3 |
| O=S(=O)(NCCSc1ccccn1)c1ccc(Br)cc1 [CBK264001] | 99.3 |
| COc1ccc(Br)cc1S(=O)(=O)n1ccnc1C [CBK264003] | 87.1 |
| Cc1cc(C)c2oc(-c3cccc(NC(=O)c4cccc(Cl)c4Cl)c3C)nc2c1 [CBK264005] | 84.2 |
| Cc1ccccc1CSCC(=O)Nc1ccc(S(=O)(=O)N2CCCCC2)cc1 [CBK264006] | 103 |
| O=S(=O)(NCc1cccnc1)c1ccc(Cl)c2ccccc12 [CBK264008] | 89.5 |
| Cc1ccccc1CNC(=O)c1ccc(C)c([N+](=O)[O-])c1 [CBK264010] | 110 |
| O=C(CN(c1ccc(Cl)cc1)S(=O)(=O)c1ccccc1)Nc1ccc(F)cc1 [CBK264013] | 90.5 |
| OC(CNCCc1ccccc1)CN1c2ccccc2Sc2ccccc21 (stereo not shown) [CBK264017G] | 97.6 |
| COc1ccc(I)cc1S(=O)(=O)NCc1ccccn1 [CBK264019] | 91.3 |
| Cc1ccc(S(=O)(=O)N(CC(=O)Nc2ccc(Cl)cc2C)c2cccc(Cl)c2C)cc1 [CBK264021] | 85.7 |
| Cc1ccc(-c2nc3cc(Cl)ccc3o2)cc1NC(=S)NC(=O)c1cccc(Cl)c1 [CBK264022] | 108 |
| COc1ccc(C(NC(=O)c2cccc(OC)c2)c2cc(Cl)c3cccnc3c2O)cc1 (stereo not shown) [CBK264027] | 90.7 |
| O=C(CSCc1ccc([N+](=O)[O-])cc1)Nc1ccc2c(c1)OCO2 [CBK264031] | 95.7 |
| O=S(=O)(NCc1cccnc1)c1ccc(Cl)c(Cl)c1Cl [CBK264032] | 91.1 |
| O=C(Nc1ccc2oc(-c3cccnc3)nc2c1)c1ccc(-c2ccccc2)cc1 [CBK264035] | 88.3 |
| COc1cc(C(=O)Nc2ccc3oc(-c4cccnc4)nc3c2)ccc1OCc1ccc(Cl)cc1 [CBK264037] | 87.9 |
| Cc1ccc(N(CC(=O)Nc2ccc(Br)c(C)c2)S(=O)(=O)c2ccc(C)cc2)cc1 [CBK264038] | 94.6 |

| SMILES | viability at 28.5 h, 10 µM [%] |
| --- | --- |
| Cc1ccccc1CNC(=O)CCSc1ccc(Cl)cc1 [CBK264040] | 102 |
| CC(Oc1ccc(/C=C/[N+](=O)[O-])cc1)C(=O)O (stereo not shown) [CBK264042] | 99.9 |
| CCCc1nc2oc3c(-c4ccccc4)c(C(=O)O)c(C)nc3c2c2c1COC(C)(C)C2 [CBK264044] | 89.2 |
| CCOC(=O)c1c(NC(=S)NC(=O)c2cccc(Cl)c2)sc2c1CCCC2 [CBK264045] | 88.2 |
| Cc1ccccc1CNC(=O)CN(c1cccc(C(F)(F)F)c1)S(=O)(=O)c1ccccc1 [CBK264047] | 102 |
| Cc1ccc(C(=O)NC(=S)Nc2cccc(NC(=O)c3ccccc3C)c2)cc1 [CBK264049] | 95.1 |
| COc1ccc(N(CC(=O)N2CCN(C)CC2)S(=O)(=O)c2ccc(C)c([N+](=O)[O-])c2)cc1 [CBK264051] | 89.8 |
| CN1CCc2c(C#N)c(N)n(N)c(=S)c2C1 [CBK264055] | 101 |
| Cc1ccc(S(=O)(=O)NCCSCc2ccc(Cl)cc2)cc1[N+](=O)[O-] [CBK264056] | 104 |
| Cn1nc(CC(=O)Nc2ccc(OC(=O)c3ccccc3)cc2)c2ccccc2c1=O [CBK264057] | 96 |
| O=C(NC(Cc1ccccc1)C(=O)N1CCCC1C(=O)O)c1ccccc1 (stereo not drawn) [CBK264058] (Bz-Phe-Pro-OH; configuration not given here) | 90.8 |
| CC(Oc1ccccc1)C(=O)Nc1ccccc1-c1ccccc1 (stereo not shown) [CBK264059] | 111 |
| CC(Oc1ccccc1)C(=O)NCCCc1ccccc1 (stereo not shown) [CBK264060] | 93.4 |
| O=C(COc1cccc(Br)c1)Nc1nnc[nH]1 [CBK264063] | 94.1 |
| CC(C)(O)C#Cc1ccc(C(=O)N2CCC(C(N)=O)(N3CCCCC3)CC2)cc1 [CBK264065] | 97.3 |
| Cc1cc(C)c(C)c(C(=O)COC(=O)c2cc(O)nc3ccccc23)c1C [CBK264066] | 94.8 |
| Cc1sc2nc(SCC(=O)c3c[nH]c4ccccc34)nc(O)c2c1C [CBK264068] | 80.9 |
| COc1ccc(C(=O)COC(=O)c2cc(-c3ccc(Cl)cc3)nc3ccc(C)cc23)cc1[N+](=O)[O-] [CBK264072] | 90.6 |
| O=S(=O)(NC1c2cccc3cccc(c23)C1Sc1ccccn1)c1ccc(Cl)cc1 (stereo not shown) [CBK264073] | 95.1 |
| CC(=O)OC(C(=O)O)C(OC(C)=O)c1nc2ccccc2s1 (stereo not shown) [CBK264076] | 99.3 |
| O=C(O)CNC(=O)CN1C(=O)c2ccccc2C1=O [CBK264077] | 98.6 |
| O=S(=O)(NC1c2cccc3cccc(c23)C1N1CCNCC1)c1ccc(Cl)cc1 (stereo not shown) [CBK264082] | 92.2 |
| Cc1ccc(C(=O)COC(=O)c2cc(O)nc3ccccc23)cc1[N+](=O)[O-] [CBK264085] | 98.8 |
| Cc1noc(NS(=O)(=O)c2ccc(NC(=O)COc3cccc(Br)c3)cc2)c1C [CBK264086] | 104 |
| O=S(=O)(NCC(Nc1cccc2ccccc12)c1ccccc1)c1ccc(Cl)cc1 (stereo not shown) [CBK264087] | 90.3 |

same assay, conditions: human, hela cells, % viability, bulk resorufin, single well

| SMILES | viability at 28.5 h, 10 µM [%] |
| --- | --- |
| Cc1ccc(OCCn2cc(/C=C3/C(=O)NC(=O)N(Cc4ccco4)C3=O)c3ccccc32)cc1 [CBK263936] | 92.9 |
| O=C1NC(=O)N(Cc2ccco2)C(=O)/C1=C\c1ccc(-c2ccc(Cl)c(C(=O)O)c2)o1 [CBK263937] | 97.9 |
| O=C1NC(=O)N(Cc2ccco2)C(=O)/C1=C\c1cn(Cc2ccccc2)c2ccccc12 [CBK263939] | 88.5 |
| Cc1cc(/C=C2\C(=O)NC(=S)N(c3ccccc3)C2=O)c(C)n1-c1cc(C(=O)O)cc(C(=O)O)c1 [CBK263975] | 105 |
| COc1ccc(N2C(=O)/C(=C/c3ccc(OCC(=O)O)c(Cl)c3)C(=O)NC2=S)cc1 [CBK264018] | 93.7 |
| Cc1cc(/C=C2\C(=O)NC(=O)N(c3ccccc3F)C2=O)c(C)n1-c1cc(C(=O)O)cc(C(=O)O)c1 [CBK264028] | 89.9 |
| Cc1cc(/C=C2\C(=O)NC(=O)N(c3cccc(F)c3)C2=O)c(C)n1-c1cc(C(=O)O)cc(C(=O)O)c1 [CBK264041] | 97.3 |
